Earlier results as cited in patent US20060198906A1, “Compositions and Method to Increase Serum Levels of HDL cholesterol and Lower the Risk of Cardiovascular Disease” (SAMI LABS LIMITED, priority 2005, published 2006).

Details: dose range of 20-80 mg/day, clinical studies

## CC(C)c1nc(N(C)S(C)(=O)=O)nc(-c2ccc(F)cc2)c1/C=C/[C@@H](O)C[C@@H](O)CC(=O)O [Rosuvastatin]
  reduction of LDL levels: up to 65%
